Measured values taken from patent publication US8765773B2, “Substituted hydroxamic acids and uses thereof” (Millennium Pharmaceuticals, Inc., priority 2010, dated 2014).

target: T1, purified human HDAC6 (Homo sapiens, UniProt Q9UBN7); experiment: HDAC6 Enzyme Assay; assay type: biochemical; details: compound concentration 0.37 μM, read-out: Percent Inhibition
T1 construct: purchased BPS Bioscience 5006
T1 sequence (Q9UBN7 1-1215): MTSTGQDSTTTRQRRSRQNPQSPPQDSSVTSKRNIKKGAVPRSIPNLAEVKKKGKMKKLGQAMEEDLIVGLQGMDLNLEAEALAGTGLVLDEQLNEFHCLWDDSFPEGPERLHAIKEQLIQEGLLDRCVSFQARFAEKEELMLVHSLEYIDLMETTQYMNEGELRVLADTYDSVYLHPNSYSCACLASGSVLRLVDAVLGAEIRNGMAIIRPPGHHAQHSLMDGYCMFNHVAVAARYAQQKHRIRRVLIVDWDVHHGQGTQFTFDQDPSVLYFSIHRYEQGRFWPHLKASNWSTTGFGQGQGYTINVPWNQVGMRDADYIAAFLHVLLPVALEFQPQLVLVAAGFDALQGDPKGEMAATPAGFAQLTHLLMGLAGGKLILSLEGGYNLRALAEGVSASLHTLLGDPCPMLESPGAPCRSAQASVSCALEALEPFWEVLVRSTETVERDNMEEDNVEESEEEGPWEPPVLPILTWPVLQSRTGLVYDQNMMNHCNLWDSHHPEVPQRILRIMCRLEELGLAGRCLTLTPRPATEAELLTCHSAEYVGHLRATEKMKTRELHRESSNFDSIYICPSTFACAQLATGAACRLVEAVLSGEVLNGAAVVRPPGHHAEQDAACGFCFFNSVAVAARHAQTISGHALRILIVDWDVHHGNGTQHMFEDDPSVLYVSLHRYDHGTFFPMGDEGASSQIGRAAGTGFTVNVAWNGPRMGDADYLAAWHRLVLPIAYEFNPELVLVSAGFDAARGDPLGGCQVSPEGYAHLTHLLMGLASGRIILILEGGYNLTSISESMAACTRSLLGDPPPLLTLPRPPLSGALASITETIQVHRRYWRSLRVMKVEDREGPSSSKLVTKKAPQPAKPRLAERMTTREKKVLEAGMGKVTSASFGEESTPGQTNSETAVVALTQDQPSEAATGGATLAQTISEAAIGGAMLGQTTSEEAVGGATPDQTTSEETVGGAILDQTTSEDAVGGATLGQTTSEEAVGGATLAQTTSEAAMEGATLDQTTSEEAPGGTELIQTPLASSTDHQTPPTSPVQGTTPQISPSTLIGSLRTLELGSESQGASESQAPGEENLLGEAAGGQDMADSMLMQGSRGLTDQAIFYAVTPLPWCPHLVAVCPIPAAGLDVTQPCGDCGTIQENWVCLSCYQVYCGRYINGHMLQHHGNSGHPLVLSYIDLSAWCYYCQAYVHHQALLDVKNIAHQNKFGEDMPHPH
Procedure, shortened: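 Readout is AMC fluorescence (Ex 340 nm, Em 460 nm) after trypsin cleavage of the deacetylated Ac-Arg-Gly-Lys(Ac)-AMC product. Reaction: purified human HDAC6, compound or vehicle, 1 hour, 30° C, quenched by trichostatin A. Single-concentration percent inhibition or IC50 calculated versus DMSO-treated samples.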

In order of rising inhibition at 0.37 µM:
1. O=C(NO)c1ccc2ncn(CCc3cccc(-c4csc5ccccc45)c3)c(=O)c2c1 [Compound I-318, 3-{2-[3-(1-benzothien-3-yl)phenyl]ethyl}-N-hydroxy-4-oxo-3,4-dihydroquinazoline-6-carboxamide]  86.4%
2. O=C(NO)c1ccc2c(=O)n(Cc3ccc(C(F)(F)F)cc3)c(-c3ccc(Cl)cc3)nc2c1 [Compound I-134, 2-(4-chlorophenyl)-N-hydroxy-4-oxo-3-[4-(trifluoromethyl)benzyl]-3,4-dihydroquinazoline-7-carboxamide]  88.6%
3. O=C(NO)c1ccc2ncn(Cc3cccc(-c4cccc(OC(F)(F)F)c4)c3)c(=O)c2c1 [Compound I-37, N-hydroxy-4-oxo-3-{[3′-(trifluoromethoxy)biphenyl-3-yl]methyl}-3,4-dihydroquinazoline-6-carboxamide]  89.8%
4. O=C(NO)c1ccc2c(=O)[nH]c(C3CCCCC3)nc2c1 [Compound I-416, 2-cyclohexyl-N-hydroxy-4-oxo-3,4-dihydroquinazoline-7-carboxamide]  90%
5. CCN1CCC(CCn2ccc3ccc(C(=O)NO)cc3c2=O)CC1 [Compound I-315, 2-[2-(1-ethylpiperidin-4-yl)ethyl]-N-hydroxy-1-oxo-1,2-dihydroisoquinoline-7-carboxamide]  90.1%
6. O=C(NO)c1ccc2c(=O)[nH]c(CC3CCCCC3)nc2c1 [Compound I-409, 2-(cyclohexylmethyl)-N-hydroxy-4-oxo-3,4-dihydroquinazoline-7-carboxamide]  92.5%
7. CC(C)(c1ccccc1)n1cnc2ccc(C(=O)NO)cc2c1=O [Compound I-413, N-hydroxy-3-(1-methyl-1-phenylethyl)-4-oxo-3,4-dihydroquinazoline-6-carboxamide]  94.1%
8. O=C(NO)c1ccc2ncn(Cc3cccc(-c4cccc(C(F)(F)F)c4)c3)c(=O)c2c1 [Compound I-46, N-hydroxy-4-oxo-3-{[3′-(trifluoromethyl)biphenyl-3-yl]methyl}-3,4-dihydroquinazoline-6-carboxamide]  94.4%

same assay, conditions: compound concentration 0.412 μM, read-out: Percent Inhibition

In order of rising inhibition at 0.412 µM:
1. O=C(NO)c1ccc2c(=O)[nH]c(=O)[nH]c2c1 [Compound I-155, N-hydroxy-2,4-dioxo-1,2,3,4-tetrahydroquinazoline-7-carboxamide]  19.6%
2. O=C(NO)c1ccc2c(=O)[nH]c(C(=O)NC3CCNCC3)nc2c1 [Compound I-278, N^7-hydroxy-4-oxo-N^2-piperidin-4-yl-3,4-dihydroquinazoline-2,7-dicarboxamide]  26.2%
3. O=C(NO)c1ccc2ccn(CCN3CCCCC3)c(=O)c2c1 [Compound I-277, N-hydroxy-1-oxo-2-(2-piperidin-1-ylethyl)-1,2-dihydroisoquinoline-7-carboxamide]  71.2%
4. CC(C)n1cnc2ccc(C(=O)NO)cc2c1=O [Compound I-121, N-hydroxy-3-isopropyl-4-oxo-3,4-dihydroquinazoline-6-carboxamide]  71.9%
5. O=C(NO)c1ccc2c(=O)n(CCc3ccccn3)c(C3CCCCC3)nc2c1 [Compound I-6, 2-cyclohexyl-N-hydroxy-4-oxo-3-(2-pyridin-2-ylethyl)-3,4-dihydroquinazoline-7-carboxamide]  77.7%
6. O=C(NO)c1ccc2ccn(CCCOc3cccc(OCc4ccccc4)c3)c(=O)c2c1 [Compound I-20, 2-{3-[3-(benzyloxy)phenoxy]propyl}-N-hydroxy-1-oxo-1,2-dihydroisoquinoline-7-carboxamide]  83%
7. CCOCCn1cnc2ccc(C(=O)NO)cc2c1=O [Compound I-226, 3-(2-ethoxyethyl)-N-hydroxy-4-oxo-3,4-dihydroquinazoline-6-carboxamide]  84.5%
8. O=C(NO)c1ccc2ccn(CCCOc3ccccc3-c3csnn3)c(=O)c2c1 [Compound I-160, N-hydroxy-1-oxo-2-{3-[2-(1,2,3-thiadiazol-4-yl)phenoxy]propyl}-1,2-dihydroisoquinoline-7-carboxamide]  87.4%
9. CCN(CC)Cc1cccc(Cn2ccc3ccc(C(=O)NO)cc3c2=O)c1 [Compound I-208, 2-{3-[(diethylamino)methyl]benzyl}-N-hydroxy-1-oxo-1,2-dihydroisoquinoline-7-carboxamide]  89.9%
10. COc1ccccc1OCc1nc2cc(C(=O)NO)ccc2c(=O)[nH]1 [Compound I-248, N-hydroxy-2-[(2-methoxyphenoxy)methyl]-4-oxo-3,4-dihydroquinazoline-7-carboxamide]  90%
11. CC(C)(C)OC(=O)N1CCC(C)(C(=O)Nc2cccc(Cn3ccc4ccc(C(=O)NO)cc4c3=O)c2)CC1 [Compound I-93, tert-butyl 4-{[(3-{[7-[(hydroxyamino)carbonyl]-1-oxoisoquinolin-2(1H)-yl]methyl}phenyl)amino]carbonyl}-4-methylpiperidine-1-carboxylate]  90.1%
12. O=C(NO)c1ccc2ccn(Cc3c(F)c(F)c(F)c(F)c3F)c(=O)c2c1 [Compound I-65, N-hydroxy-1-oxo-2-(pentafluorobenzyl)-1,2-dihydroisoquinoline-7-carboxamide]  93%
13. O=C(NO)c1ccc2ccn(CCOc3cccc(OCc4ccccc4)c3)c(=O)c2c1 [Compound I-258, 2-{2-[3-(benzyloxy)phenoxy]ethyl}-N-hydroxy-1-oxo-1,2-dihydroisoquinoline-7-carboxamide]  93.9%
14. COc1ccc(N(CCCn2ccc3ccc(C(=O)NO)cc3c2=O)C(=O)OC(C)(C)C)cc1 [Compound I-188, tert-butyl {3-[7-[(hydroxyamino)carbonyl]-1-oxoisoquinolin-2(1H)-yl]propyl}(4-methoxyphenyl)carbamate]  94.4%
15. O=C(NO)c1ccc2ccn(Cc3ccccc3C(F)(F)F)c(=O)c2c1 [Compound I-172, N-hydroxy-1-oxo-2-[2-(trifluoromethyl)benzyl]-1,2-dihydroisoquinoline-7-carboxamide]  94.5%
16. O=C(NO)c1ccc2ccn(Cc3ccc(F)cc3Cl)c(=O)c2c1 [Compound I-50, 2-(2-chloro-4-fluorobenzyl)-N-hydroxy-1-oxo-1,2-dihydroisoquinoline-7-carboxamide]  94.9%
17. O=C(NO)c1ccc2ccn(Cc3ccccc3CS(=O)(=O)c3ccccc3)c(=O)c2c1 [Compound I-178, N-hydroxy-1-oxo-2-{2-[(phenylsulfonyl)methyl]benzyl}-1,2-dihydroisoquinoline-7-carboxamide]  95%
18. O=C(NO)c1ccc2ccn(Cc3cccc(OC(F)(F)F)c3)c(=O)c2c1 [Compound I-14, N-hydroxy-1-oxo-2-[3-(trifluoromethoxy)benzyl]-1,2-dihydroisoquinoline-7-carboxamide]  95.1%
19. O=C(NO)c1ccc2ccn(Cc3c(F)cccc3Cl)c(=O)c2c1 [Compound I-187, 2-(2-chloro-6-fluorobenzyl)-N-hydroxy-1-oxo-1,2-dihydroisoquinoline-7-carboxamide]  95.1%
20. O=C(NO)c1ccc2ccn(CCc3c[nH]c4ccccc34)c(=O)c2c1 [Compound I-152, N-hydroxy-2-[2-(1H-indol-3-yl)ethyl]-1-oxo-1,2-dihydroisoquinoline-7-carboxamide]  96%
21. O=C(NO)c1ccc2ccn(Cc3cc(F)ccc3F)c(=O)c2c1 [Compound I-198, 2-(2,5-difluorobenzyl)-N-hydroxy-1-oxo-1,2-dihydroisoquinoline-7-carboxamide]  96.4%
22. Cc1ccc(OCCn2ccc3ccc(C(=O)NO)cc3c2=O)cc1 [Compound I-212, N-hydroxy-2-[2-(4-methylphenoxy)ethyl]-1-oxo-1,2-dihydroisoquinoline-7-carboxamide]  96.9%
23. Cc1nn(-c2ccccc2)nc1Cn1ccc2ccc(C(=O)NO)cc2c1=O [Compound I-234, N-hydroxy-2-[(5-methyl-2-phenyl-2H-1,2,3-triazol-4-yl)methyl]-1-oxo-1,2-dihydroisoquinoline-7-carboxamide]  98.6%
